Measured values as given in paper PMC9747239, “State-selective modulation of heterotrimeric Gαs signaling with macrocyclic peptides” (Cell, 2022).
Where a SMILES comes first, the peptide text is derived from it. Bridges are numbered along the chain shown (N, C = ends). Where no end group is shown, it is not given here. [ ]: non-standard residue; d: D form. The star is where a group is joined. NH(CH2CH2O)2(CH2)6Cl = ClCCCCCCOCCOCCN*

T1: Biotinylated Avi-Gαs (WT), residues 7-380 of the short isoform of human Gαs (human, biotin on the Avi tag)
T1 construct: Gαs (GNAS), human, short isoform (380 residues), residues 7-380; Loaded with GppNHp (GNP) or GDP as the assay says; also called Biotinylated Gαs/GNP; Biotinylated Gαs/GDP; source: E. coli BL21(DE3), purified (TALON, Source-15Q, gel filtration), biotinylated with BirA; not shown: Avi tag, N-terminal, kept; His6, N-terminal, cleaved
T1 chain: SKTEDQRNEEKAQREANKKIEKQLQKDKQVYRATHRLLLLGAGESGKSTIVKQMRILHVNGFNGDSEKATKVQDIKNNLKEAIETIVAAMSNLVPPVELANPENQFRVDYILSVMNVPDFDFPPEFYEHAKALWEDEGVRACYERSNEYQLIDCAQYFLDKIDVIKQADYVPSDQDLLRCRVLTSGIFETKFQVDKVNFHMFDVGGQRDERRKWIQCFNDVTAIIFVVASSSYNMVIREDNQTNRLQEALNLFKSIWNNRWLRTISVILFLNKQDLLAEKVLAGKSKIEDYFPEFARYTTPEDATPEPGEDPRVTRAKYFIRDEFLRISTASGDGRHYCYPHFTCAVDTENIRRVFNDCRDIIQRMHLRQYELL


Key:
[1] = system: HeLa cells; assay: Chloroalkane penetration assay (CAPA); format: cell-based, human; details: HeLa cells expressing HaloTag, 19.5 h incubation
Protocol: The cell lines used for CAPA were HeLa cell lines, generated by Chenoweth and co-workers, that stably express HaloTag exclusively in the cytosol ([Peraro et al., 2018]). Cells were seeded in a 96-well plate the day before the experiment at a density of 4 × 10^4 cells per well. The day of the experiment the media was aspirated, and 100 μL of cyclic peptide dilutions in DMEM were added to the cells. Plate was incubated for 19.5 h at 37°C with 5% CO2. The contents of the wells were aspirated off, and wells were washed using fresh Opti-MEM for 15 min. The wash was aspirated off, and the cells were chased using 5 μM ct-TAMRA for 15 min, except for the No-ct-TAMRA control wells, which were incubated with Opti-MEM alone. The contents of the wells were aspirated and washed with fresh Opti-MEM for 30 min. After aspiration, cells were rinsed once with PBS (PBS). The cells were then trypsinized, quenched with DMEM, resuspended in PBS, and analyzed using a benchtop flow cytometer (CytoFLEX, Beckman). Final [cyclic peptide]: 0, 0.034, 0.10, 0.31, 0.93, 2.78, 8.33, 25 μM.

[2] = molecular target: T1, Biotinylated Avi-Gαs (WT), residues …; assay: BLI; biotinylated Gαs loaded with GDP immobilised on streptavidin biosensors (2-3 nm), cyclic peptide as analyte (4.12-1000 nM), association 120 s, dissociation 120 s, 25 °C, 10 mM HEPES pH 7.4, 150 mM NaCl, 1 mM MgCl2, 0.05% Tween 20, 0.1% DMSO, 0.2 mM GDP; double reference subtraction, 1:1 binding model; details: both partners purified

Molecule	cell penetration (CAPA) [1]	koff [2] [s⁻¹]	kon [2] [M⁻¹ s⁻¹]
CC[C@H](C)[C@@H]1NC(=O)[C@H](CC(C)C)NC(=O)[C@@H](Cc2ccc(O)cc2)NC(=O)CSC[C@@H](C(=O)NCC(=O)NCCOCCOCCCCCCCl)NC(=O)[C@@H]2CCCN2C(=O)[C@H](CC(C)C)NC(=O)[C@H](CC(N)=O)NC(=O)[C@H](CC(C)C)NC(=O)[C@H](C)NC(=O)[C@H](Cc2c[nH]c3ccccc23)NC(=O)[C@H](CCC(N)=O)NC(=O)[C@H](CCCNC(=N)N)NC(=O)[C@H](Cc2ccccc2)NC(=O)[C@H]([C@@H](C)O)NC1=O [ct-GD20-F10L] ({CH2CO}-[dY]LITFRQWALNLPCG-{NH(CH2CH2O)2(CH2)6Cl}; thioether N-14)	further improved cell penetration		
CC[C@H](C)[C@@H]1NC(=O)[C@H](CC(C)C)NC(=O)[C@@H](Cc2ccc(O)cc2)NC(=O)CSC[C@@H](C(=O)NCC(=O)NCCOCCOCCCCCCCl)NC(=O)[C@@H]2CCCN2C(=O)[C@H](CC(C)C)NC(=O)[C@H](CC(N)=O)NC(=O)[C@H](Cc2ccccc2)NC(=O)[C@H](C)NC(=O)[C@H](Cc2c[nH]c3ccccc23)NC(=O)[C@H](CCC(N)=O)NC(=O)[C@H](CCCNC(=N)N)NC(=O)[C@H](Cc2ccccc2)NC(=O)[C@H]([C@@H](C)O)NC1=O [ct-GD20] ({CH2CO}-[dY]LITFRQWAFNLPCG-{NH(CH2CH2O)2(CH2)6Cl}; thioether N-14)	cell permeable		
CC[C@H](C)[C@@H]1NC(=O)[C@H](C)NC(=O)[C@H](Cc2ccc(O)cc2)NC(=O)[C@H](C(C)C)NC(=O)[C@H](CO)NC(=O)[C@H](CCC(N)=O)NC(=O)[C@H](Cc2ccccc2)NC(=O)[C@@H](Cc2ccc(O)cc2)NC(=O)CSC[C@@H](C(=O)NCC(=O)NCCOCCOCCCCCCCl)NC(=O)[C@H](CC(C)C)NC(=O)[C@H]([C@@H](C)O)NC(=O)CNC(=O)[C@H](Cc2c[nH]c3ccccc23)NC1=O [ct-GN13-E3Q] ({CH2CO}-[dY]FQSVYAIWGTLCG-{NH(CH2CH2O)2(CH2)6Cl}; thioether N-13)	measurable cell penetration		
{CH2CO}-[dY]LITFRQWAFNLPCG (thioether N-14, Selected by RaPID mRNA display; Synthesised on NovaPEG Rink Amide resin, so a C-terminal amide is surmised; source: synthetic peptide (Fmoc solid phase synthesis, cyclised, RP-HPLC)) [GD20]		0.00343	109000
